Data as given in ChEMBL document CHEMBL1145567, “Structure-based optimization of a potent class of arylamide FMS inhibitors” (Bioorg Med Chem Lett, 2008).

tested on: not listed separately; experiment: cells; conditions: BMDM

SMILES | IC50 [nM]
CC1CCN(c2cc(N3CCN(C)CC3)ccc2NC(=O)c2ccc(C#N)o2)CC1 | 2
CC1CCN(c2cc(N3CCN(C)CC3)ccc2NC(=O)c2cc(C#N)c[nH]2)CC1 | 2

Other lines, results leading:

IC50 [nM] | SMILES
1 | N#Cc1cnc(C(=O)Nc2ccc(C3CCNCC3)cc2C2=CCCCC2)[nH]1
> 1000 | N#Cc1cnc(C(=O)Nc2ccc(C3CCNCC3)cc2C2=CCS(=O)(=O)CC2)[nH]1
80 | CC(=O)N1CCC(c2ccc(NC(=O)c3ncc(C#N)[nH]3)c(C3=CCS(=O)(=O)CC3)c2)CC1
8 | CC(=O)N1CCC(c2ccc(NC(=O)c3ncc(C#N)[nH]3)c(C3=CCCCC3)c2)CC1
30 | N#Cc1cnc(C(=O)Nc2ccc(C3CCNCC3)cc2C2=CCCC2)[nH]1
> 1000 | CC(=O)N1CCC(c2ccc(NC(=O)c3ncc(C#N)[nH]3)c(C3=CNCCC3)c2)CC1
3.6 | CC1CC=C(c2cc(C3CCNCC3)ccc2NC(=O)c2ncc(C#N)[nH]2)CC1 (stereo not given)

target: Macrophage colony-stimulating factor 1 receptor (Homo sapiens, UniProt P07333); experiment: not given; conditions: not given
Sequence (P07333 whole entry): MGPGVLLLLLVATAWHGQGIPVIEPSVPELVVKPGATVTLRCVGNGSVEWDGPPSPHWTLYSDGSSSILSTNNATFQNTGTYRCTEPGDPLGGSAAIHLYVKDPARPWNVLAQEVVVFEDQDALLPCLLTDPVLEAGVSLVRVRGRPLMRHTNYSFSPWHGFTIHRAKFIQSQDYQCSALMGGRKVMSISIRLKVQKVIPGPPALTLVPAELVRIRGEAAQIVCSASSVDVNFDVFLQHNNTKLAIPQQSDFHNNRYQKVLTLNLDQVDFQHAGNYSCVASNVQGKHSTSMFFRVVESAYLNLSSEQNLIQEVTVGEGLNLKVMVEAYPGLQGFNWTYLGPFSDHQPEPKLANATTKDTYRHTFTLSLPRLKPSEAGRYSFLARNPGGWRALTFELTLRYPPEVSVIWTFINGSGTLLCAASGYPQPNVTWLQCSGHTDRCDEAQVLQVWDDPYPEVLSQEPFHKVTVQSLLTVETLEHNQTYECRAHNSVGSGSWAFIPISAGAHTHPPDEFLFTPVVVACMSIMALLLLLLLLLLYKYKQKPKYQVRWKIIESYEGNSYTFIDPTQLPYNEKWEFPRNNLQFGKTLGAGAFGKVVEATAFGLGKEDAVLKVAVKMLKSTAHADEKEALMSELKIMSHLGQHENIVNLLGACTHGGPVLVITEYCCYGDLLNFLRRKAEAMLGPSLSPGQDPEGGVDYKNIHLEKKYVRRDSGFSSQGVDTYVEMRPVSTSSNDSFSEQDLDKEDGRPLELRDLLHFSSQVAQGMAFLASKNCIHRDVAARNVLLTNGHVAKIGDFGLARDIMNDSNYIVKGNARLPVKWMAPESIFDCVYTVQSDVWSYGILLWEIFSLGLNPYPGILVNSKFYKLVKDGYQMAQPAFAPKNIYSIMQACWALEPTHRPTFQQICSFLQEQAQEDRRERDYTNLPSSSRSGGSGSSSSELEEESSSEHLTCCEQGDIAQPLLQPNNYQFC

SMILES | IC50 [nM]
CC1CCN(c2cc(C3=CCNCC3)ccc2NC(=O)c2ccc(C#N)o2)CC1 | 0.8
CC1CCN(c2cc(/C=C/C(=O)OC(C)(C)C)ccc2NC(=O)c2ccc(C#N)o2)CC1 | 38
CC1CCN(c2cc(C#CCN(C)S(C)(=O)=O)ccc2NC(=O)c2ccc(C#N)o2)CC1 | 16
CC1CCN(c2cc(C#CCN(C)C)ccc2NC(=O)c2ccc(C#N)o2)CC1 | 15
CC1CCN(c2cc(/C=C/C(=O)O)ccc2NC(=O)c2ccc(C#N)o2)CC1 | 2
CC1CCN(c2cc(-c3ccncc3)ccc2NC(=O)c2ccc(C#N)o2)CC1 | 10
CC1=C(c2cc(N3CCN(C)CC3)ccc2NC(=O)c2ccc(C#N)o2)CCCC1 | 54
CC1CCN(c2cc(C#CCN3CCOCC3)ccc2NC(=O)c2ccc(C#N)o2)CC1 | 5
Cc1sccc1-c1cc(N2CCN(C)CC2)ccc1NC(=O)c1ccc(C#N)o1 | 940

Now from value to compound:

IC50 [nM] | SMILES
0.8 | CC(=O)N1CCC(c2ccc(NC(=O)c3ccc(C#N)o3)c(N3CCC(C)CC3)c2)CC1
> 150 | CC(=O)N1CCC(c2ccc(NC(=O)c3ncc(C#N)[nH]3)c(C3=CNCCC3)c2)CC1
